The record followed here is patent US8329681B2, “Methods and compositions for the efficient delivery of therapeutic agents to cells and animals” (University of Massachusetts, priority 2005, dated 2012).

Data set [1] concerns FL83B cells. As to the kind of experiment: Cell Titer 96 AQueous One Solution (MTS) cytotoxicity assay. Type of data set: cell-based, rat. Conditions: liposomal formulation alone or in combination with DOPE and DOPC as co-lipid. The procedure:
(§1) Alternatively, the cytotoxicity of the lipids was measured using the Cell Titer 96® AQueous One Solution Cell Proliferation Assay. The Cell Titer 96® AQueous One Solution Reagent contains a tetrazolium compound [3-(4,5-dimethylthiazol-2-yl)-5-(3-carboxymethoxyphenyl)-2(4-sulfophenyl)-2H-tetrazolium, inner salt; MTS^17] and an electron coupling reagent (phenazine ethosulfate; PES). The cytotoxicity assay was performed in 96 well plates by maintaining the ratio of number of cells to amount of cationic lipid constant as in transfection experiments. MTS was added 24 hours after transfection. Cell Titer 96® AQueous One Solution Reagent (20 ul) was pipetted into each well of the 96-well assay plate containing the samples in 100 μl of culture medium. In case of HeLa cells the plates were incubated for 2 hours, whereas for FL83B cells, plates were incubated for 4 hours at 37° C. in a humidified, 5% CO2 atmosphere. Absorbance was then recorded at 490 nm.
(§2) In a second experiment, FL83B and HeLa cells were plated on 96 well plate 18 hours prior to transfection. Then, liposome was added to each well and incubated for 24 hours. Thereafter, Cell Titer 96® AQueous One Solution Reagent was added and incubated for 4 hours. The MTS tetrazolium compound (Owen's reagent) is bioreduced by viable cells into a colored formazan product that is soluble in tissue culture […]. The absorbance of the formazan was measured at 490 nm with a 96 well plate reader.

Data set [2] relates to HeLa cells. The data set is described as above. The format is cell-based, human. Particulars: liposomal formulation alone or in combination with DOPE and DOPC as co-lipid. The procedure: as §1, §2
A further data set concerns A549 cells. As to the kind of experiment: Transfection of pSV-β-gal plasmid, β-galactosidase reporter activity. Type of data set: cell-based, human. Here is the method: (§3) Cationic lipids and the co-lipids in chloroform were dried under a stream of N2 gas and vacuum-desiccated for a minimum of 6 h to remove residual organic solvent. The dried lipid film was hydrated in sterile deionized water at cationic lipid concentration of 1 mM for a minimum of 12 h. Liposomes were vortexed to remove any adhering lipid film and probe sonicated until a clear translucent solution is formed. The pDNA solution was added to the liposomes, mixed properly by pipeting and shaken on a rotary shaker (15-30 mins.) before use.
(§4) Cells were seeded at a density of 20,000 (for HeLa cells), 16,000 (for A-549 cells), 8,000 (for FL83B cells) per well in a 96-well plate 18-24 h before transfection. An amount of 0.30 μg of pDNA was complexed with varying amounts of lipids (to give +/− ratios of 0.3:1, 1:1, 3:1 and 9:1) in plain OPTIMEM (total volume made up to 100 μl) and then shaken on a rotary shaker at room temperature for 20-30 minutes. The complexes were then added to the cells. After 5 h of incubation, 200 μl of complete medium containing 10% FBS in DMEM for HeLa and 10% FBS in F-12K for FL83B and A549 was added to the cells. The medium was changed after 24 h and the reporter gene activity was estimated 48 h after transfection. Cells were washed with PBS (100 μl) and lysed in […] lysis buffer (5× reporter lysis buffer diluted to 1×, working concentration). The β-galactosidase activity per well was estimated by adding 50 μl of 2× substrate solution (1.33 mg/ml of ONPG, 0.2 M sodium phosphate, pH 7.15 and 2 mM magnesium chloride) to the lysate in a 96-well plate. Absorbance of the product ortho-nitrophenol was measured at 420 nm. The absorbance values reported are the average values from two replicate experiments performed in the same plate on the same day. Each transfection experiment was performed three times on three different days to control for variations in transfection efficiency.
(§5) Briefly, the efficacy of various lipid formulations were tested in three cell lines A-549, FL83B and HeLa cells and the transfection efficiencies of the cationic liposomal formulations were compared with a commercially available transfection reagent (e.g., Lipofectamine 2000).

Data set [3] relates to HeLa cells. The description is as above. Type of data set: cell-based, human. Here is the method:
as §3, §4, §5

Data set [4] has as its system FL83B cells. The data set is described as above. The format is cell-based, rat. The procedure:
as §3, §4, §5

In a further data set the test system is CDK9 expression. Put plainly: In vivo delivery of CDK9 siRNA with liposome by tail vein injection, CDK9 expression in spleen. The arrangement: species or system BALB/c mice. Conditions: Cy3-labeled CDk9 siRNA (25 μg) and liposome (125 μg), repeated 4 and 8 h later, within the initial 24 h after treatment. Here is the method: Total RNA was extracted from tissues or cultured cells using Trizol (Invitrogen, Carlsbad, Calif.), and real-time RT-PCR for CDK9 and GAPDH mRNA quantification was carried out using 200 ng of total RNA and the QuantiTect SYBR Green RT-PCR Kit (Qiagen, Valencia, Calif.) according to the manufacturer's instructions. The ratio of CDK9 and GAPDH mRNA was calculated and expressed as a group average relative to the control group. The specific probe for detection of CDK9 mRNA levels was designed to the following regions of the CDK9 mRNA ORF, the forward primer 5′ TCGGACCAA AGCCTCACCGTATAA 3′, the reverse primer 5′ […] TTG 3′
Male BALB/c mice, 6-8 weeks of age and weighting 20-22 g, were purchased form the Jackson Laboratory (Bar Harbor, Me.). Synthetic siRNA were delivered in vivo using following method. For each mice 25 μg of siRNA in 100 μl of HEPES Buffered Saline (20 mM HEPES, 150 mM NaCl, pH 7.4) was transferred into a sterile tube. In a separate sterile tube 125 μg of liposome was mixed with 200 μl HEPES Buffered Saline. The siRNA solution was transferred to the tube containing liposome solution and then incubated at room temperature for 20 minutes. 200 μl of the complexes was injected via the tail vein, using a 1-ml syringe and 27-gauge needle. The injection was repeated 4 and 8 h later. Control mice were injected with an equal volume of liposome. At 24 h after the last injection, the mice were sacrificed and tissues were harvested for further analysis. CDK9 expression level was normalized with GAPDH and then compared to those obtained from control animals and shown as percent expression. The data represent the mean value +/− SD of three to five mice in each group.
Briefly, the ability of the new synthesized liposome to deliver siRNA in mice was investigated. BALB/c mice were administrated with complexes of Cy3-labeled CDk9 siRNA (25 μg) and liposome (125 μg) via normal pressure tail vein injection. The injection was repeated 4 and 8 h later. Control mice were administrated with an equal amount of liposome. […]

For data set [5], the system named is A-549, FL83B and HeLa cells. Put plainly: Transfection of pSV-β-gal plasmid, overall statement without cell line. Type of data set: cell-based. Conditions: alone without any co-lipids. The procedure:
as §4, with “efficiency. […]” for “efficiency.”

Data set [6] relates to FL83B cells. Put plainly: Cell Titer-Blue cell viability assay, cytotoxicity of liposomes. The format is cell-based, rat. Particulars: 50 μg/ml, 24 h incubation. Here is the method:
The Cell Titer-Blue Cell Viability Assay Kit (Promega, Madison, Wis.) was applied to detect and measure cytotoxicity in FL83B cells according to the manufacturer's instructions. Briefly, […] cells were plated on 96-well plate in F-12K medium (ATCC, Manassas, Va.) with 10% fetal bovine serum at 37° C. in 5% CO2. At 24 h., liposomes were added to each well at various concentrations and incubated for 24 h at 37° C. in 5% CO2. Afterwards, the Cell Titer-Blue Reagent was added to each well at 20 μl/well and incubated for 4 h at 37° C. in 5% CO2. The fluorescent signal was recorded by a fluorescent reader (560/590 nm).
Briefly, in a first experiment, the ability of eukaryotic cells to survive exposure to various lipids at doses of 20 and 50 μg/ml was examined. Fl83B cells were plated on 96-well plate for 24 hours. Typically liposomes were added to well and incubated at 37° C. for 24 hours. Thereafter, Cell Titer-Blue Reagent (resazurin) was added and incubated for 4 hours. Resazurin was used as indicator to measure the metabolic capacity of cells. Viable cells retain the ability to reduce resazurin into resorufin, which is highly fluorescent. […] The fluorescence in each well was measured by fluorescent reader.
All cytotoxicity measurements were performed after 24 h of incubation with new synthesizes liposome without medium changes. […]

The mark [7] stands for this setting: alone and in combination with DOPE and DOPC, lipid:DNA charge ratio 9.0:1 to 0.3:1.
Setting [8] is: in combination with DOPE and DOPC.
Setting [9] is: alone or in combination with DOPE and DOPC, lipid:DNA charge ratio 9.0:1 to 0.3:1.0.
Setting [10] is: lipid:DNA charge ratio 9.0:1 to 0.3:1.0.

As for `CCCCCCCCCCCCCC(=O)OC(COC(=O)CCC(=O)O[C@H]1CC[C@@]2(C)C(=CC[C@H]3[C@@H]4CC[C@H]([C@H](C)CCCC(C)C)[C@@]4(C)CC[C@@H]32)C1)C[N+](C)(C)C.[I-]` (some centres unmarked) [Lipid 7, N,N,N-Trimethyl-N-[2-(tetradecanoyloxy),3-succinyloxy(4-cholesteryloxy)-propyl]ammonium iodide], the “cytotoxicity as compared to a control” value in the data set on FL83B cells [1] and in the data set on HeLa cells [2] was “non-toxic” each time. Further, the “transfection efficiency compared with Lipofectamine 2000” value was “comparable” with A549 cells (setting [7]), “more than one fold less” with HeLa cells [3] (setting [7]) and “comparable” in the data set with FL83B cells [4] (setting [7]). Moreover, the “CDK9 expression level in the spleen decreased by” value with CDK9 expression came out at 40%. Also, in data set [5], the “transfection efficiency of lipid alone compared with lipid in combination with DOPE and DOPC” value is given as “about as efficient”.
On to `CCCCCCCCCCCCCC(=O)O[C@H](COC(=O)CCC(=O)O[C@H]1CC[C@@]2(C)C(=CC[C@H]3[C@@H]4CC[C@H]([C@H](C)CCCC(C)C)[C@@]4(C)CC[C@@H]32)C1)C[N+](C)(CCO)CCO.[I-]` [Lipid 9], for which the cell death with FL83B cells [6] was found to be 12%. Moreover, the “transfection efficiency compared with Lipofectamine 2000” value in the data set on A549 cells (setting [8]) is “comparable”. For the same compound, the “transfection efficiency, fold less than Lipofectamine 2000” value with HeLa cells [3] (setting [8]) and with FL83B cells [4] (setting [8]) was “more than 1 fold” each time. The “CDK9 expression level in the spleen decreased by” value in the data set on CDK9 expression came out at 30%.
Regarding `CC(C)CCC[C@@H](C)[C@H]1CC[C@H]2[C@@H]3CC=C4CC(OC(=O)CCC(=O)OCC(O)C[N+](C)(C)C)CC[C@]4(C)[C@H]3CC[C@]12C` (some centres unmarked) [Lipid 12, N,N,N-Trimethyl-N-[2-hydroxy, 3-succinyloxy(4-cholesteryloxy)-propyl]ammonium iodide], the “transfection efficiency compared with Lipofectamine 2000” value with A549 cells (lipid:DNA charge ratio 0.3:1), in the data set on HeLa cells [3] (lipid:DNA charge ratio 0.3:1) and with FL83B cells [4] (lipid:DNA charge ratio 0.3:1) was “comparable” throughout.
Take `CC[N+](C)(C)CCNC(=O)OC1CC[C@@]2(C)C(=CC[C@H]3[C@@H]4CC[C@H]([C@H](C)CCCC(C)C)[C@@]4(C)CC[C@@H]32)C1` (some centres unmarked) [Lipid 14]: the “transfection efficiency, fold less than Lipofectamine 2000” value is recorded as “about 1.5 fold” in the data set with A549 cells (alone or in combination with DOPE and DOPC, lipid:DNA charge ratios 1:1 and 0.3:1); 2.5 fold in the data set on HeLa cells [3] (in combination with DOPE); “more than 1.5 fold” in the data set with HeLa cells [3] (lipid alone, charge ratio 9:1 to 3:1). Besides, the “transfection efficiency compared with Lipofectamine 2000” value is “almost comparable” with HeLa cells [3] (in combination with DOPC, lipid:DNA charge ratio 0.3:1); “comparable” in the data set with FL83B cells [4] (alone, charge ratio 3:1); “less efficient” with FL83B cells [4] (in combination with DOPC); “comparable” in the data set with FL83B cells [4] (in combination with DOPE, charge ratio 9:1).
With `CC(C)CCC[C@@H](C)[C@H]1CC[C@H]2[C@@H]3CC=C4C[C@@H](OC(=O)NCC[N+](C)(C)CCCCCCCCCCCO)CC[C@]4(C)[C@H]3CC[C@]12C.[Br-]` [Lipid 16], the “cytotoxicity as compared to a control” value with FL83B cells [1] and in the data set on HeLa cells [2] was “non-toxic” in each case. Moreover, the “transfection efficiency compared with Lipofectamine 2000” value in the data set with A549 cells (setting [9]) was “about a little more than one fold”; in the data set on FL83B cells [4] (alone or in combination with co-lipids) it was “about two fold less”. The “transfection efficiency of lipid alone compared with combination with co-lipids DOPE and DOPC” value in the data set with A549 cells (setting [10]) and in the data set on HeLa cells [3] (setting [10]) was “almost the same” each time. Besides, the “transfection efficiency, fold less active than Lipofectamine 2000” value in the data set with HeLa cells [3] (setting [9]) is “about 1.5 fold”.
